Laboratory results: patent US4533662A, “2-Acylaminomethyl-1,4-benzodiazepine compounds and analgesic use” (Kali-Chemie Pharma GmbH, priority 1980, dated 1985)
Structures can show the parent of a compound that is named as a salt.

Columns and labels:
[1] = tested on: rats; assay: Arthritis pain test with rats; type: in vivo, Male rats of the strain OFA; conditions: Rattus norvegicus, po, 3 hours after administration; protection (no or one squeak) in 50% of animals; read-out: Suppression of arthritis pain in rats ED50
Description: 2. Arthritis pain test with rats.
Male rats of the strain OFA weighing 160 g. to 180 g. are anesthesized by intraperitoneal administration of 20 mg./kg. of pentobarbital sodium. 0.1 ml. of suspension of Mycobacterium Smegmae (S I043) in paraffin oil (0.6 mg. of Mycobacterium in 0.1 ml. of paraffin oil) are injected intracutaneously into the left hind paw. Fourteen days thereafter, when a pronounced secondary arthritis has developed particularly in the right hind paw, the effects of the compound to be tested are investigated. 30 minutes before the administration of the compound to be tested, a control measurement is carried out by bending three times the ankle joint of the right hind paw and the number of squeaks produced by the animal are counted. […] Three hours after oral administration of the compound to be tested, the bending procedure is repeated. Animals which emit only one squeak or none at all, are considered to be protected against pain. Between 9 and 20 rats are tested per dose and the ED50 (95% confidence limit) is determined according to the method of Litchfield and Wilcoxon (1949). The dose which achieves protection in 50% of the treated animals is designated as the ED50.

[2] = tested on: mice; assay: Tail flick test with mice; type: in vivo, male and female mice; conditions: Mus musculus, sc, 0.5 h; s.c., 30 min after administration; reaction time 75% longer in 50% of animals
Description: 3. Tail flick test with mice.
The method is based on the procedure described by d'Amour and Smith in 1941. In contrast thereto there are used, in place of rats, fed male and female mice of a body weight of 16 g. to 25 g. 30 minutes before treatment with the compound to be tested each mouse is placed into a separate cylindrical container of such a size that the mouse cannot turn around and cannot move forward. Its tail extends outwardly of the container while resting in a narrow trough. A specific spot of the tail of each animal (at a distance of about 35 mm. from the tail root) is exposed to the heat of radiation of a lamp of known strength and temperature. The lamp is positioned directly underneath the tail. The time in seconds which the mouse needs in order to jerk the tail out of the range of the light ray, is determined twice, once 30 minutes and another time 15 minutes before the subcutaneous administration of the compound (10 mg./kg) to be tested. Mice, the reaction time of which deviates by more than 25%, are eliminated and disregarded. The reaction times are again measured 15 minutes and 30 minutes after administration. An increase in the reaction times by more than 75% of the average reaction time values measured before administration of the test compound to the same mouse is considered an analgesic effect. […] The ED50 is calculated according to the method of Litchfield and Wilcoxon (1949).

[3] = tested on: mice; assay: Determination of the minimum toxic dose in mice; type: in vivo, male mice; conditions: p.o., observed 3 hours, deaths and symptoms up to 24 hours; maximum dose 300 mg./kg.
Description: 1. Determination of the minimum toxic dose.
Maximum doses of 300 mg./kg. of the compound to be tested are administered per os to male mice of a weight of 20 g. to 25 g. The animals are carefully observed for any toxicity symptoms during 3 hours. In addition thereto all symptoms and deaths are registered for a period of time of 24 hours after administration of the drug. Any accompanying symptoms are also observed and registered. When death or toxic symptoms are observed, more and more decreasing doses are administered to other mice, until no more toxic symptoms are encountered. The lowest dose which causes toxic symptoms is given as the minimum toxic dose.

| SMILES | ED50 [1] | ED50 [2] | Minimum toxic dose in mice [3] |
| --- | --- | --- | --- |
| CN1c2ccccc2C(c2ccccc2)=NCC1CNC(=O)c1ccccc1 (centres unmarked) [Example 1, 1-Methyl-2-benzoyl amino methyl-5-phenyl-1H-2,3-dihydro-1,4-benzo diazepine] | 19 mg/kg | 0.52 mg/kg | > 300 mg/kg |
| COc1ccc2c(c1)N(C)C(CNC(=O)c1ccccc1)CN=C2c1ccc(F)cc1 (centres unmarked) [Example 2, 8-Methoxy-1-methyl-2-benzoyl amino methyl-5-(4'-fluorophenyl)-1H-2,3-dihydro-1,4-benzo diazepine] | 2 mg/kg | 0.64 mg/kg | 50 mg/kg |
| COc1ccc2c(c1)N(C)C(CNC(=O)c1ccccc1)CN=C2c1ccc(Cl)cc1Cl (centres unmarked) [Example 4, 8-Methoxy-1-methyl-2-benzoyl amino methyl-5-(2',4'-dichlorophenyl)-1H-2,3-dihydro-1,4-benzo diazepine] | 0.5 mg/kg | 0.07 mg/kg | 10 mg/kg |
| CN1c2ccccc2C(c2ccccc2)=NCC1CNC(=O)c1ccc(Cl)cc1Cl (centres unmarked) [Example 18] | 7.5 mg/kg |  | > 300 mg/kg |
| CN1c2ccccc2C(c2ccccc2)=NCC1CNC(=O)c1ccc(Cl)c(Cl)c1 (centres unmarked) [Example 19, 1-Methyl-2-(3,4-dichlorobenzoylaminomethyl)-5-phenyl-1H--2,3-dihydro-1,4-benzo diazepine hydrochloride] | ~2.3 mg/kg | 1 mg/kg | > 300 mg/kg |
| COc1ccc(C(=O)NCC2CN=C(c3ccccc3)c3ccccc3N2C)cc1 (centres unmarked) [Example 20] | ~4 mg/kg | 4.6 mg/kg | 300 mg/kg |
| Cc1ccc(C(=O)NCC2CN=C(c3ccccc3)c3ccccc3N2C)cc1 (centres unmarked) [Example 25] | 3.2 mg/kg | 2.5 mg/kg |  |
| CN1c2ccccc2C(c2ccccc2)=NCC1CNC(=O)c1ccc([N+](=O)[O-])cc1 (centres unmarked) [Example 28] | 0.6 mg/kg |  | > 300 mg/kg |
| CN1c2ccccc2C(c2ccccc2F)=NCC1CNC(=O)c1ccc(C#N)cc1 (centres unmarked) [Example 29] | 1.7 mg/kg | 21 mg/kg | 300 mg/kg |
| COc1cccc(C(=O)NCC2CN=C(c3ccccc3F)c3ccccc3N2C)c1 (centres unmarked) [Example 31] | 10 to 18 mg/kg | 1.8 mg/kg | > 300 mg/kg |
| COc1ccc(C(=O)NCC2CN=C(c3ccccc3F)c3ccccc3N2C)cc1 (centres unmarked) [Example 32] | 1.7 mg/kg | 4.2 mg/kg | 300 mg/kg |
| CN1c2ccccc2C(c2ccccc2F)=NCC1CNC(=O)c1ccc(C(F)(F)F)cc1 (centres unmarked) [Example 33] | 5.6 to 10 mg/kg | 1.4 mg/kg | > 300 mg/kg |
| CN1c2ccccc2C(c2ccccc2F)=NCC1CNC(=O)c1cccc(C#N)c1 (centres unmarked) [Example 35] | 9 mg/kg | 13 mg/kg |  |
| COc1ccc(C(=O)NCC2CN=C(c3ccc(F)cc3)c3ccccc3N2C)cc1 (centres unmarked) [Example 40] | 11 mg/kg |  | > 300 mg/kg |
| Cc1ccc2c(c1)C(c1ccccc1F)=NCC(CNC(=O)c1ccccc1)N2C (centres unmarked) [Example 47] | ~13 mg/kg | 5.6 mg/kg | > 300 mg/kg |
| CN1c2cc3c(cc2C(c2ccccc2)=NCC1CNC(=O)c1ccccc1)OCO3 (centres unmarked) [Example 49] | 2.5 mg/kg | 0.56 mg/kg | 100 mg/kg |
| COc1ccc2c(c1)N(C)C(CNC(=O)c1ccccc1)CN=C2c1cccc(C(F)(F)F)c1 (centres unmarked) [Example 55] | 10 to 18 mg/kg | 5.6 to 10 mg/kg |  |
| COc1ccc2c(c1)N(C)C(CNC(=O)c1ccccc1)CN=C2c1cccc(F)c1 (centres unmarked) [Example 58] | ~18 mg/kg | 1.6 mg/kg | 300 mg/kg |
| CN1c2cc(F)ccc2C(c2ccccc2)=NCC1CNC(=O)c1ccccc1 (centres unmarked) [Example 59] | 9.7 mg/kg | 1 mg/kg | 300 mg/kg |
| COc1ccc2c(c1)N(C)C(CNC(=O)c1ccccc1)CN=C2c1ccccc1F (centres unmarked) [Example 60] | 3.5 mg/kg | 0.32 mg/kg | 300 mg/kg |
| COc1ccc(CC(=O)NCC2CN=C(c3ccccc3)c3cc(Cl)ccc3N2C)cc1OC (centres unmarked) [Example 112] | 10 mg/kg | 20 mg/kg | 50 mg/kg |
| COc1ccc(CC(=O)NCC2CN=C(c3ccccc3)c3cc4c(cc3N2C)OCO4)cc1OC (centres unmarked) [Example 113] | 18 to 32 mg/kg | < 5.6 mg/kg | 100 mg/kg |
| CN1c2ccccc2C(c2ccccc2F)=NCC1CNC(=O)Cc1ccccc1Cl (centres unmarked) [Example 117] | 6 mg/kg | 13 mg/kg | > 300 mg/kg |
| CCN1c2ccccc2C(c2ccccc2F)=NCC1CNC(=O)c1ccc(C(F)(F)F)cc1 (centres unmarked) [Example 154] | 2 mg/kg |  |  |
| CCN1c2ccccc2C(c2ccccc2)=NCC1CNC(=O)c1ccc(C(F)(F)F)cc1 (centres unmarked) [Example 155] | ~2 mg/kg |  |  |
